Data reported in patent US10413583B2, “Synthetic substrates for enzymes that catalyze reactions of modified cysteines and related methods” (The University of Chicago, priority 2016, dated 2019).

Tests used:
[1] = Water solubility of probes (stated in words); format: physicochemical
APT2 = molecular target: T1, APT2 (Homo sapiens, UniProt O95372); experiment: In vitro kinetic assay and emission spectra of DPP-1, DPP-2, DPP-3 with purified APT2 (with detergent); format: biochemical
T1 construct: His-tag; made in house; host or cells: E. coli ROSETTA DE3
T1 sequence (O95372 whole entry): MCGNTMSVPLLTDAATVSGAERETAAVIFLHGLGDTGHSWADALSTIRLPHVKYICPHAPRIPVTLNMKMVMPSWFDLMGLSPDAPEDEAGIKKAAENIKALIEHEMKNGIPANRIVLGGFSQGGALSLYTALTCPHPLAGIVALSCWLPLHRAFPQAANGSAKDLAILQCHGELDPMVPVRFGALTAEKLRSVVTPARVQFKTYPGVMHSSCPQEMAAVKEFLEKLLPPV
Procedure: (§1) 50 μL of 7.5 μM DPP1-3 in HEPES (20 mM, pH=7.4, 150 mM NaCl, 0.1% Triton X-100) were added to a 384-well black flat bottom plate (Corning Life Sciences, Corning, N.Y., United States of America) and placed in an Infinite M200 Pro (Tecan, Mannedorf, Switzerland) plate reader at 37° C. for 5 min to warm. 25 μL of either 4-(2-hydroxyethyl)-1-piperazineethanesulfonic acid (HEPES) buffer alone or HEPES buffer containing 150 nM APT1 or APT2, was added using a multi-channel pipette, resulting in a final concentration of 5 μM DPP1-3 and 50 nM APT1 or APT2. Fluorescence intensities (λex 490/9 nm, λem 545/20 nm, Gain 70, No. of flashes 25, Integration time 100 μs and Z-position 20000 μm) were measured at 30 second (s) time intervals for 20 min. At the end of 20 min kinetic run, emission spectra were obtained (λex 485 nm, Aem510-700 nm, Gain 100, No. of flashes 25, Integration time 100 μs and Z-position 20,000 μm).

APT1 = molecular target: T2, APT1 (Homo sapiens, UniProt O75608); experiment: In vitro kinetic assay and emission spectra of DPP-1, DPP-2, DPP-3 with purified APT1 (with detergent); format: biochemical
T2 construct: His-tag; made in house; host or cells: E. coli ROSETTA DE3
T2 sequence (O75608 whole entry): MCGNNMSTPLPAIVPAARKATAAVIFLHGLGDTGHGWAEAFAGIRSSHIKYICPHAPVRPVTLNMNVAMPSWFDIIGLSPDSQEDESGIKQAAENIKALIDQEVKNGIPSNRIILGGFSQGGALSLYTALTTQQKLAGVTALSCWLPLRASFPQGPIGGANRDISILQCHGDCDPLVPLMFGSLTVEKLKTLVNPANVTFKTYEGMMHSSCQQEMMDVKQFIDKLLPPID
Procedure: as §1

HEK293T cells = experiment: Live cell fluorescence imaging and flow cytometry of DPP-2 and DPP-3 in HEK293T cells; format: cell-based, human; details: 1 μM DPP-2 for 15 min, microscopy or flow cytometry
Procedure: HEK293T (650,000 cells per dish) cells were plated with 1.5 mL of Dulbecco's Modified Eagle Medium (DMEM) (High Glucose, 10% fetal bovine serum (FBS)) in a 35 mm glass bottom dish (D35-10-1.5-N; Cellvis, Mountain View, Calif., United States of America) 24 hrs prior to imaging. 30 min before the addition of the DPP probe, the cell culture media was removed and cells were washed with 1 mL of Delbecco's phosphate-buffered saline (DPBS). The media was then replaced with 1 mL of DMEM containing 1 μM Hoechst 33342 and either 0.1% DMSO carrier as a control, 1 or 2 μM Palm B, 0.1, 1.0, or 5 μM ML348, and incubated for 30 min at 37° C. and 5% CO2. The media was removed, the cells were washed with 1 mL of Live Cell Imaging Solution (Thermo Fisher Scientific, Waltham, Mass., United States of America), and 1 mL of 1 μM DPP-2 or DPP-3 in Live Cell Imaging Solution was added to each plate. For ML348 0.1, 1.0, or 5 μM was added along with DPP-2 or DPP-3. After incubation for 15 min at 37° C. and 5% CO2, images were obtained on an inverted epi-fluorescence microscope (Olympus IX83; Olympus Corporation, Tokyo, Japan) attached with EMCCD camera (Photometrics EVOLVE™ Delta; Photometrics, Tucson, Ariz., United States of America) with 40× oil objective (N/A 1.3) for DPP-2 (excitation filter 500/20, dichroic chroma 89007, emission filter 535/30, exposure time 200 ms, EM gain 25), Hoechst 33342: (excitation filter 402/15, emission filter 455/50, dichroic chroma 89013, exposure time 30 ms, EM gain 25), and brightfield (exposure time 5 ms, EM gain 5), and for DPP-3 (exposure time 500 ms, EM gain 150), Hoechst 33342: (exposure time 30 ms, EM gain 25), and brightfield (exposure time 20 ms, EM gain 5). Analyses were performed in ImageJ. For data analysis, the average fluorescence intensity per image in each experimental condition was obtained by selecting regions of interest (ROIs) in the brightfield image. For display, the data were normalized to the average fluorescence intensity of the control conditions. Each experiment was repeated at least three separate times with identical results.
Cells were plated on a 10 cm dish with 10 mL of DMEM/High Glucose (10% FBS, 1% P/S, L-Glutamine, Sodium pyruvate) 36-48 hours prior to the day of experiment and maintained at 37° C., 5% CO2 so as to obtain 80-90% confluency. Cells were washed with DPBS and trypsinized with 1 mL 0.05% Trypsin. 5 mL of DMEM/High Glucose (10% FBS, L-Glutamine, Sodium pyruvate) was added and cells were spun down at 1200 rpm for 3 min. Media was discarded and cells were resuspended in 5 mL of Live Cell Imaging Solution and again spun down at 1200 rpm for 3 min. The cells pellets obtained were resuspended in 3-5 mL of Live Cell Imaging Solution and divided into 500 μL aliquots. The aliquots were treated with either 0.2% DMSO carrier or 1 μM of PalmB/ML348 or 1 μM/5 μM of ML349 inhibitor. After 30 min of incubation at room temperature, 1 μL of 2.5 mM DPP-3 in DMSO was added to each aliquot for a final concentration of 5 μM, and the solutions were mixed. After 5 min incubation at room temperature, fluorescence signal in FITC channel was measured for 10000 cells (5000 for HeLa experiments) on a LSR-Fortessa 4-15 HTS (BD digital instrument, 488 nm laser with 530/30 nm filter for FITC; BD, Franklin Lakes, N.J., United States of America). For analyzing DPP2 in HEK293T cells, the aliquots were treated with either 0.2% DMSO carrier or 2 μM of PalmB, 5 or 20 μM of ML348/ML349 and then analyzed by the protocol as mentioned above. Data was analyzed by FlowJo software version 10.0.8. For comparison of A431 starved versus non-starved, parallel 10 cm dishes of A431 cells were plated in 10 mL of DMEM (high glucose, 10% FBS, 1% P/S), and grown for 36 h. The growth media was removed, and replaced by 10 mL of either DMEM (High glucose) with 10% FBS to maintain “growth” conditions, or DMEM (High glucose) without FBS respectively for “starvation” conditions, and incubated for 14 h. […]

water solubility [1]: water soluble
performance as substrate (APT2): slightly better than DPP-1
enhancement in fluorescence signal (APT1; 5 μM probe, 50 nM APT1, 20 min): 200 fold
performance as substrate / reaction kinetics (APT1; purified APT1): slightly better than DPP-1
SMILES: CCCCCCCC(=O)SC[C@@H](C(=O)NC)N(C)C(=O)Oc1ccc2c(c1)Oc1cc(N(C)C)ccc1C21OC(=O)c2ccccc21 (some centres unmarked) [DPP-2]
probe fluorescent signal in live cells (HEK293T cells): robust intracellular fluorescent signal
